Source: patent US20110020326A1, “METHOD OF TREATING POLYCYSTIC KIDNEY DISEASE” (CHILDREN'S MEDICAL CENTER CORPORATION, priority 2008, published 2011)
Entries after “also recorded” stand apart in the source; their conditions may differ.

Key:
[1] = test system: mTOR phosphorylation in Pkd1^null/null cells; assay: mTOR phosphorylation (Western blot phospho-mTOR / total mTOR) in Pkd1 null/null cells; assay type: cell-based, mouse; settings: c-Met inhibitor 5 mM for 40 min (FIG. 1 legend) / 5 μM, 4 hours (Example 5), FIG. 1a, b
Method: Pkd1 wild type (WT) and Pkd1^null/null cell line were isolated from embryonic day 15.5 kidneys from a cross of Pkd1^null/+ mice that also carry a temperature-sensitive simian virus 40 (SV40) large T-antigen transgene, similar with the protocol described in reference 23. Wt and Pkd1^null/null cells were cultured in Dulbecco's modified Eagle medium containing 2% fetal bovine serum, 0.75 μg/L γ-interferon, 1.0 g/L insulin, 0.67 mg/L sodium selenite, 0.55 g/L transferrin, 36 ng/ml hydrocortisone, 100 U/ml Penicillin/streptomycin under 33° C. and 5% CO2^23.
Immunoprecipitation and western-blot were performed using whole cell lysates unless otherwise specified. Confluent cells were collected, washed with PBS, lysed with lysis buffer (20 mM Tris/HCl, 1 mM EDTA, 150 mM NaCl, 1% Triton X-100) containing proteinase inhibitor cocktail tablet (Roche #1697498, Mannheim, Germany) at 4° C. for 30 minutes. After centrifugation at 13,000 rpm for 15 minutes, supernatants were incubated with specific antibody at 4° C. for 1 hour, followed by incubation with Protein G conjugated beads (Pierce Biotechnology, IL) at 4° C. for 2 hours, washed in lysis buffer. Samples were running on 7.5% acrylamide gel, transferred to PVDF membranes and visualized by immunoblotting with respective antibodies. […]

[2] = test system: Pkd1^null/null embryonic kidneys; assay: Embryonic kidney organ culture model of PKD (8-Br-cAMP-induced cyst formation, H&E sections); assay type: cell-based, mouse; settings: 96 hours of culture
Method: Embryonic mice kidneys of E13.5 were dissected out and cultured in media^29 (1% FBS, 5 mg/ml Transferin, 0.05 mM Sodium Selenite, 100 nM hydrocortisone, 2 nM T3, 25 ng/ml PGE1, 100 U/ml Penicillin/streptomycin, 100 mM 8-Br-cAMP) in Center-Well Organ Culture Dish (BD Labware, Franklin Lakes, N.J.). The following day, the kidneys from the same embryo were treated with either […] Met Kinase Inhibitor (Calbiochem, La Jolla, CA) or DMSO (the same volume with Met Kinase Inhibitor). The media were changed everyday with the same additives as above. After […], kidneys were fixed by 4% PFA, and embedded in paraffin. Paraffin sections were stained with hematoxylin and eosin.
Embryonic mice kidneys of E13.5 were dissected out and cultured in media (1% FBS, 5 mg/ml Transferin, 0.05 mM Sodium Seelenite, 100 nM hydrocortisone, 2 nM T3, 25ng/ml PGE1, 100 U/ml Penicillin/streptomycin, 100 mM 8-Br-cAMP) in Center-Well Organ Culture Dish (BD Labware, Franklin Lakes, N.J.). The following day, the kidneys from the same embryo were treated with either 2 microgram/ml c-MET blocking antibody (R&D Systems, Minneapolis, Minn.) or PBS (the same volume with c-Met blocking antibody). The media were changed everyday with the same additives as above. After 4 days, kidneys were fixed by 4% PFA, and embedded in paraffin. Paraffin sections were stained with hematoxylin and eosin.
E13.5 embryonic kidneys were put in organ culture along with 100 μM 8-Br-cAMP, with or without 5 μM c-MET inhibitor (SU11274, from Calbiochem). (B) E13.5 embryonic kidneys were put in organ culture along with 100 mM 8-Br-cAMP, with or without 5 μg/ml c-MET neutralizing antibody (R&D Systems). (C) E13.5 embryonic kidneys were put in organ culture along with 100 mM 8-Br-cAMP, with or without 0.5 μM c-MET inhibitor (PHA665752, from Tocris, UK). Hematoxylin & Eosin stained sections of kidneys are shown after 96 hours of culture.

[3] = FIG. 6, Pkd1^null/null kidneys at E15.5, 10 mM 8-Br-cAMP, 5 μM c-MET inhibitor

Row | effect on nephrogenesis ([2]; FIG. 6, wild type and Pkd1^null/null kidneys, 5 μM c-MET inhibitor, listed as c-MET inhibitor) | effect on nephrogenesis ([2]; FIG. 6, wild type and Pkd1^null/null kidneys, 5 μM c-MET inhibitor, listed as c-Met inhibitor) | effect on nephrogenesis ([2]; FIG. 7A, E13.5 kidneys, 100 μM 8-Br-cAMP, 5 μM) | effect on nephrogenesis ([2]; FIG. 7C, E13.5 kidneys, 100 mM 8-Br-cAMP, 0.5 μM) | SMILES | mTOR phosphorylation [1] | mTOR phosphorylation ([1]; listed as Met Kinase Inhibitor) | cyst formation [2, 3] | size and number of cysts [2, 3] | cyst formation ([2]; FIG. 7A, E13.5 Pkd1 null/null kidneys, 100 μM 8-Br-cAMP, 5 μM) | cyst formation ([2]; FIG. 7C, E13.5 Pkd1 null/null kidneys, 100 mM 8-Br-cAMP, 0.5 μM)
1 | no apparent effect | did not have a marked effect | no apparent effect |  | Cc1[nH]c(/C=C2\C(=O)Nc3ccc(S(=O)(=O)N(C)c4cccc(Cl)c4)cc32)c(C)c1C(=O)N1CCN(C)CC1 [SU11274, (3Z)-N-(3-chlorophenyl)-3-({3,5-dimethyl-4-[(4-methylpiperazin-1-yl)carbonyl]-1H-pyrrol-2-yl}methylene)-N-methyl-2-oxoindoline-5-sulfonamide] | inhibited | reduced mTOR phosphorylation in Pkd1^null/null cells, to a baseline level observed in WT cells | reduced cyst formation in organ culture by Pkd1^null/null mutant kidneys to the basal level observed in WT kidneys; also recorded: decreased | decreased | decreased | 
2 |  |  |  | no apparent effect | Cc1[nH]c(/C=C2\C(=O)Nc3ccc(S(=O)(=O)Cc4c(Cl)cccc4Cl)cc32)c(C)c1C(=O)N1CCC[C@@H]1CN1CCCC1 [PHA665752, (2R)-1-[[5-[(Z)45-[[(2,6-Dichlorophenyl)methyl]sulfony 1]-1,2-dihydro-2-oxo-3H-indo1-3-ylidenelmethyl]-2,4-dimethyl-1H-pyrrol-3-yl]carbonyl]-2-(1-pyrrolidinylmethyl) pyrrolidone] |  |  |  |  |  | decreased
